Experimental data taken from article PMC3968008 (PLoS ONE, 2014).
In brackets after ≈: the same amount, converted by molar mass. Entries after “also recorded” stand apart in the source; their conditions may differ. Ends that are not written are not given here.

How the values were obtained:
[1] = test system: S. aureus (ATCC29213); assay: microbe, parasite or virus in culture; format: cell-based, Staphylococcus aureus; settings: broth microdilution, 37°C, 24 or 48 hours, individual data from two independent experiments; for MIC: Staphylococcus aureus, ATCC29213
Experimental: (§1) Antimicrobial activity of the peptides was evaluated against Escherichia coli JCM 5491, Pseudomonas aeruginosa JCM 6119, Staphylococcus aureus JCM2874, Salmonella Typhimurium JCM1652, Acinetobacter baumannii JCM6841, Bacteroides fragilis JCM11019, Fusobacterium nucleatum JCM11025, Penicillium glabrum JCM22534, Fusarium solani JCM11383, Alternaria alternata JCM5800 (RIKEN, A research institution for basic and applied science in Japan), Micrococcus luteus NBRC13867, Bacillus subtilis NBRC3134, Propionibacterium acnes NBRC107605, Trichophyton mentagrophytes NBRC6124, Trichophyton rubrum NBRC9185, Candida krusei NBRC1395 (National Institute of Technology and Evaluation, Tokyo, Japan), Salmonella Enteritidis IID604 (The Institute of Medical Science, The University of Tokyo, Tokyo, Japan). Additionally, the clinical isolates (Drug-sensitive/resistant Pseudomonas aeruginosa and Staphylococcus aureus, Osaka University Hospital) and multidrug-resistant Acinetobacter baumannii (ATCC BAA-1605) were used. […] Serial two-fold dilutions of peptide were added to 0.1 ml of medium containing each type of bacteria and fungi at concentrations of 0.4×10^4 – 5×10^4 CFU/ml. The plates were incubated at 37°C with vigorous shaking for 24 or 48 hours. The MICs were determined as the lowest concentrations of peptide that inhibited visible bacterial growth.

[2] = test system: P. aeruginosa (ATCC27853); assay: MIC, broth microdilution; format: cell-based, Pseudomonas aeruginosa; set-up: MIC P. aeruginosa (ATCC27853): unit not given beside the values; settings: 24 or 48 hours, individual data from two independent experiments
[3] = test system: E. coli (ATCC25922); assay: microbe, parasite or virus in culture; format: cell-based, Escherichia coli; settings: for MIC: Escherichia coli, ATCC25922, broth microdilution, 37°C, 24 or 48 hours, individual data from two independent experiments; for MIC E. coli (ATCC25922): ATCC25922, 48 h
Experimental: as §1

[4] = test system: interleukin-8 (IL-8) mRNA in NHDFs; assay: IL-8 mRNA expression, real-time RT-PCR; format: cell-based, human; settings: Wortmannin 100 nM, SR-0379 10 μg/ml
Experimental: Expression of the human IL-8 mRNA was measured using real-time reverse transcription polymerase chain reaction (RT-PCR). Total RNA was extracted from the tissue samples using ISOGEN reagent (NIPPON GENE, Toyama, Japan). Complementary DNA (cDNA) was synthesized using the Thermo Script RT-PCR System (Invitrogen, Carlsbad, CA). Relative gene-copy numbers for IL-8 mRNA and glyceraldehyde-3-phosphate dehydrogenase (GAPDH) were determined by real-time RT-PCR using TaqMan Gene Expression Assays (IL-8: Hs00174103_m1; GAPDH: 4352934). Absolute gene-copy numbers were normalized to GAPDH using a standard curve.

[5] = test system: Bacteroides fragilis; assay: microbe, parasite or virus in culture; format: cell-based; settings: Bacteroides fragilis; anaerobe; broth microdilution; individual data from two independent experiments
Experimental: as §1

[6] = test system: Salmonella Typhimurium; assay: microbe, parasite or virus in culture; format: cell-based; settings: Salmonella enterica, TYPHIMURIUM; aerobe; broth microdilution; individual data from two independent experiments
Experimental: (§2) Antimicrobial activity of the peptides was evaluated against Escherichia coli JCM 5491, Pseudomonas aeruginosa JCM 6119, Staphylococcus aureus JCM2874, Salmonella Typhimurium JCM1652, Acinetobacter baumannii JCM6841, Bacteroides fragilis JCM11019, Fusobacterium nucleatum JCM11025, Penicillium glabrum JCM22534, Fusarium solani JCM11383, Alternaria alternata JCM5800 (RIKEN, A research institution for basic and applied science in Japan), Micrococcus luteus NBRC13867, Bacillus subtilis NBRC3134, Propionibacterium acnes NBRC107605, Trichophyton mentagrophytes NBRC6124, Trichophyton rubrum NBRC9185, Candida krusei NBRC1395 (National Institute of Technology and Evaluation, Tokyo, Japan), Salmonella Enteritidis IID604 (The Institute of Medical Science, The University of Tokyo, Tokyo, Japan). […] Serial two-fold dilutions of peptide were added to 0.1 ml of medium containing each type of bacteria and fungi at concentrations of 0.4×10^4 – 5×10^4 CFU/ml. The plates were incubated at 37°C with vigorous shaking for 24 or 48 hours. The MICs were determined as the lowest concentrations of peptide that inhibited visible bacterial growth.

[7] = test system: Micrococcus luteus; assay: microbe, parasite or virus in culture; format: cell-based; settings: Micrococcus luteus; aerobe; broth microdilution; individual data from two independent experiments
Experimental: as §1

[8] = test system: Bacillus subtilis; assay: microbe, parasite or virus in culture; format: cell-based; settings: Bacillus subtilis; aerobe; broth microdilution; individual data from two independent experiments
Experimental: as §2

[9] = test system: Fusobacterium nucleatum; assay: MIC, broth microdilution; format: cell-based; settings: anaerobe, individual data from two independent experiments
Experimental: as §2

[10] = test system: Acinetobacter baumannii; format: cell-based; settings: aerobe; broth microdilution; individual data from two independent experiments
Experimental: as §2

[11] = test system: Salmonella Enteritidis; assay: microbe, parasite or virus in culture; format: cell-based; settings: Salmonella enterica, ENTERITIDIS; aerobe; broth microdilution; individual data from two independent experiments
Experimental: as §2

[12] = test system: fungi; assay: Antimicrobial spectrum, fungi; format: cell-based
Experimental: as §2

[13] = pooled rat serum; settings: 37°C, up to 60 minutes
[14] = peptide 500 μg/ml, 37°C, 3 or 10 minutes, acetonitrile/0.1% trifluoroacetate precipitation, HPLC, N = 2 (Fig. 1E)
Experimental: In vitro stability studies were performed by incubating the peptide with rat or human serum. Human sera (Pool of donors, 5 men and 5 women) were commercially purchased from KAC (Kyoto, Japan), which has been permitted only for experiment. We don't use the human biological specimens without the documented informed consent. Rat sera were collected from rats. The peptide (500 μg/ml) was added to serum (300 μL) and incubated at 37°C. A part of samples (90 μL) were taken, and the proteins were precipitated with acetonitrile containing 0.1% trifluoroacetate (200 μL). The precipitate was separated by centrifugation. The supernatants were analyzed by high-performance liquid chromatography (HPLC).

[15] = test system: NHDFs; assay: NHDFs proliferation, WST-1 assay; format: cell-based, human; settings: preincubation with Akt inhibitor IV 1 μM (1 hour) or rapamycin 1 nM (2 hours), then SR-0379
Experimental: HUVECs, NHDFs and NHEKs were purchased from Kurabo (Osaka, Japan). The endothelial cells were maintained in HuMedia EB2 and the fibroblasts were maintained in Medium 106S. Both media were supplemented with 1% fetal bovine serum (FBS) as described previously. The epidermal keratinocytes were maintained in HuMedia KB2. Cells were incubated at 37°C in a humidified atmosphere of 95% air/5% CO2 with exchange of medium every 2 days. HUVECs were cultured in 96-well plates at a density of 10,000 cells/well and incubated for 48 hours at 37°C with AG30/5C or FGF2 (recombinant human FGF basic, R&D systems, Inc., Minneapolis, MN). The proliferation of HUVECs, NHDFs and NHEKs was analyzed using a WST-1 assay (Dojindo, Kumamoto, Japan). Tubule formation assay has recently been developed in which endothelial cells are co-cultured with fibroblasts. […] The tube-like structures were measured in terms of total tube length with the software (Angiogenesis Image Analyzer, Kurabo, Osaka Japan). Cell migration was evaluated using an Oris cell migration assay kit (Platypus Technologies, LLC., Madison, WI) according to the manufacturer's instructions. […] The number of cells that migrated into the detection zone was measured using a plate reader. […] At each time point, the lattices were digitally photographed from a fixed distance, and their areas were calculated using image analysis software. […]

[16] = pooled rat serum, 37°C, 10 and 60 minutes, MALDI-TOF MS; major metabolites 20 aa, 18 aa, 17 aa and 12 aa
Experimental: Rat sera were collected from rats. […] Samples were collected before incubation, after 10 minutes of incubation and after 60 minutes of incubation and were precipitated by the addition of an equivalent amount of acetonitrile containing 0.1% trifluoroacetate. The samples were centrifuged, and the supernatants were purified using ZipTip m-C18 (Millipore, MA). Sample solution was mixed with matrix solution (α-cyano 4-hydroxy cinnamic acid).

[17] = test system: Alternaria alternata; assay: microbe, parasite or virus in culture; format: cell-based; settings: Alternaria alternata; fungus; broth microdilution; individual data from two independent experiments
Experimental: as §1

[18] = test system: Penicillium glabrum; assay: MIC, broth microdilution; format: cell-based; settings: fungus, individual data from two independent experiments
Experimental: as §2

[19] = test system: bacteria; assay: Antimicrobial spectrum, bacteria; format: cell-based
Experimental: as §2

[20] = test system: Candida krusei; assay: microbe, parasite or virus in culture; format: cell-based; settings: Pichia kudriavzevii; fungus; broth microdilution; individual data from two independent experiments
Experimental: as §1

[21] = test system: Trichophyton rubrum; assay: microbe, parasite or virus in culture; format: cell-based; settings: Trichophyton rubrum; fungus; broth microdilution; individual data from two independent experiments
Experimental: as §1

[22] = test system: Trichophyton mentagrophytes; assay: microbe, parasite or virus in culture; format: cell-based; settings: Trichophyton mentagrophytes; fungus; broth microdilution; individual data from two independent experiments
Experimental: as §1

[23] = test system: Fusarium solani; assay: microbe, parasite or virus in culture; format: cell-based; settings: Fusarium solani; fungus; broth microdilution; individual data from two independent experiments
Experimental: as §1

[24] = target: T1, P2X7 (Homo sapiens, UniProt Q99572); assay: Contribution of P2X7 receptors to the effect of SR-0379; format: cell-based; settings: data not shown
T1 construct: we also examined the contribution of P2X7 receptors to the effect of SR-0379; endogenous in cells; probably NHDFs (human dermal fibroblasts, Kurabo)
T1 sequence (Q99572 whole entry): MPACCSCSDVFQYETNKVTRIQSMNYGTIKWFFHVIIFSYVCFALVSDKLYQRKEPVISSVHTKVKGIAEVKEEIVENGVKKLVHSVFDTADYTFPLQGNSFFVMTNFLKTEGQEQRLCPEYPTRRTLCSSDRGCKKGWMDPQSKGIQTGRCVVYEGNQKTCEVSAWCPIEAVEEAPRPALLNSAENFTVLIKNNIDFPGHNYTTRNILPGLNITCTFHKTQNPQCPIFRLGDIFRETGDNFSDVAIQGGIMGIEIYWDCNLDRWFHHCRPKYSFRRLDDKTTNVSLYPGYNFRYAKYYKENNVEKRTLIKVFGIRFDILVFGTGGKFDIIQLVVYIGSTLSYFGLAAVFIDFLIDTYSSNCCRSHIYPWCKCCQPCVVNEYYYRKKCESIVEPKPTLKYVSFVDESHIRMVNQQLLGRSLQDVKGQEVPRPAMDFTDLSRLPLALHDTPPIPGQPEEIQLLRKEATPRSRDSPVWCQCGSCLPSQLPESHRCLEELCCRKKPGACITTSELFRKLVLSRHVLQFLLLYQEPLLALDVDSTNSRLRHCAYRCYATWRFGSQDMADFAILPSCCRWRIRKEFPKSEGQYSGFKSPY

Cc1onc(-c2ccccc2)c1C(=O)N[C@@H]1C(=O)N2[C@@H]1SC(C)(C)[C@@H]2C(=O)O [Oxacillin]
MIC [1]: 0.12 to 0.5 µg/mL (≈ 0.299 to 1.25 µM)

C[C@@H](O)[C@H]1C(=O)N2C(C(=O)O)=C(S[C@@H]3CN[C@H](C(=O)N(C)C)C3)[C@H](C)[C@H]12 [Meropenem, reference compound]
MIC ([2]; Pseudomonas aeruginosa, ATCC27853, 37°C): 0.25 to 1 µg/mL (≈ 0.652 to 2.61 µM) | MIC [1]: 0.03 to 0.12 µg/mL (≈ 0.0782 to 0.313 µM) | MIC [3]: 0.008 to 0.06 µg/mL (≈ 0.0209 to 0.156 µM)

COC[C@H]1OC(=O)c2coc3c2[C@@]1(C)C1=C(C3=O)[C@@H]2CCC(=O)[C@@]2(C)C[C@H]1OC(C)=O [Wortmannin]
Effect of pretreatment on SR-0379-induced IL-8 mRNA expression [4]: attenuated

O=C(N[C@H](CO)[C@H](O)c1ccc([N+](=O)[O-])cc1)C(Cl)Cl [Chloramphenicol, reference compound]
MIC [5]: 1 µg/mL (≈ 3.09 µM) | MIC [6]: 4 µg/mL (≈ 12.4 µM) | MIC [7]: 1 µg/mL (≈ 3.09 µM) | MIC [8]: 4 µg/mL (≈ 12.4 µM) | MIC [9]: 0.25 µg/mL (≈ 0.774 µM) | MIC Acinetobacter baumannii [10]: 16/32 | MIC [11]: 4 µg/mL (≈ 12.4 µM) | Inhibitory activity against fungi [12]: failed to exhibit an inhibitory activity

MLKLIFLHRLKRMRKRLKRKLRFWHRKRYK
fragment found [13]: MLKLIFLHRL KRMRKRLKRK (SR-0007), major; also recorded: MLKLIFLHRL KRMRKRLK, major; also recorded: MLKLIFLHRL KRMRKRL, major; also recorded: LHRL KRMRKRLK, major

MLKLIFLHRLKRMRKRLKRK [SR-0007]
Stability in human serum ([14]; human serum (pool of 5 men and 5 women) 300 μL): rapidly degraded | Stability in rat serum ([14]; rat serum 300 μL): rapidly degraded | MIC E. coli (ATCC25922) [3]: 64 µg/mL

CO[C@H]1C[C@@H]2CC[C@@H](C)[C@@](O)(O2)C(=O)C(=O)N2CCCC[C@H]2C(=O)O[C@H]([C@H](C)C[C@@H]2CC[C@@H](O)[C@H](OC)C2)CC(=O)[C@H](C)/C=C(\C)[C@@H](O)[C@@H](OC)C(=O)[C@H](C)C[C@H](C)/C=C/C=C/C=C/1C [Rapamycin]
Effect on SR-0379-induced cell proliferation [15]: attenuated

NC[C@H]1O[C@H](O[C@H]2[C@H](O)[C@@H](O[C@H]3O[C@H](CO)[C@@H](O)[C@H](N)[C@H]3O)[C@H](N)C[C@@H]2N)[C@H](N)C[C@@H]1O [Tobramycin, reference compound]
MIC [1]: 0.12 to 1 µg/mL (≈ 0.257 to 2.14 µM) | MIC [3]: 0.25 to 1 µg/mL (≈ 0.535 to 2.14 µM)

MLKLIFLHRLKRMRKRLKRKLRLWHRKRYK [AG30/5C]
MIC P. aeruginosa (ATCC27853) ([2]; 37°C): 16/32 | MIC S. aureus (ATCC29213) [1]: 16/32 | Metabolic stability, cleavage in rat serum [16]: cleaved by endopeptidases and exopeptidase at multiple sites | MIC E. coli (ATCC25922) [3]: 32 µg/mL

C[C@@H]1[C@H](O)[C@@H](C)/C=C/C=C/C=C/C=C/C=C/C=C/C=C/[C@H](O[C@@H]2O[C@H](C)[C@@H](O)[C@H](N)[C@@H]2O)C[C@@H]2O[C@](O)(C[C@@H](O)C[C@@H](O)[C@H](O)CC[C@@H](O)C[C@@H](O)CC(=O)O[C@H]1C)C[C@H](O)[C@H]2C(=O)O [Amphotericin B, reference compound]
MIC [17]: 1 µg/mL (≈ 1.08 µM) | MIC [18]: 0.125 µg/mL (≈ 0.135 µM) | Inhibitory activity against bacteria [19]: failed to exhibit an inhibitory activity | MIC [20]: 2 µg/mL (≈ 2.16 µM) | MIC [21]: 0.125 µg/mL (≈ 0.135 µM) | MIC [22]: 0.125 µg/mL (≈ 0.135 µM) | MIC [23]: 1 µg/mL (≈ 1.08 µM)

CCOc1ccc(Nc2ccc(/C(=C3C=C/C(=[N+](/CC)Cc4cccc(S(=O)(=O)[O-])c4)C=C/3C)c3ccc(N(CC)Cc4cccc(S(=O)(=O)O)c4)cc3C)cc2)cc1 [Brilliant Blue G]
Inhibition of the effects of SR-0379 by P2X7 antagonist [24]: failed to inhibit

CC[n+]1c(/C=C/N(C)c2ccccc2)n(-c2ccccc2)c2ccc(-c3nc4ccccc4s3)cc21.[I-] [Akt inhibitor IV]
Effect on SR-0379-induced cell proliferation [15]: attenuated
